This is an account of results in paper PMC6472966 (Analytical and bioanalytical chemistry, 2019).

For series [1], the system named is HeLa cells. The series is classed as cell-based. As to conditions: 10 μM peptide, 60 min at 37°C, hierarchical cluster analysis, Fig. 4a.
The conditions of series [2]: bulk, off-chip studies; cited from earlier work.
The conditions of series [3]: at high concentrations; cited from earlier work.
For series [4] the following is noted: cited from earlier work.

For the substance FAM-RRRRRRRRR [ARG], in series [1], the “normalized fluorescence of the largest cluster (subpopulation)” value is ~ 1200. The “permeability efficiency on average compared to OWRWR and RWRWR” value in series [2] is recorded as “higher permeability efficiencies”.
In the case of FAM-YGRKKRRQRRR [TAT], the cytotoxicity entry in series [3] was “high cytotoxicity”. The “permeability efficiency on average compared to OWRWR and RWRWR” value in series [2] is “higher permeability efficiencies”.
Turning to Ac-OWVRVpGO(FAM)WIRQ-NH2 [OWRWR], the “stability under intracellular conditions compared to TAT and ARG” value in series [4] was “enhanced stability”.
